Paper PMC9223658, “New Borane-Protected Derivatives of α-Aminophosphonous Acid as Anti-Osteosarcoma Agents: ADME Analysis and Molecular Modeling, In Vitro Studies on Anti-Cancer Activities, and NEP Inhibition as a Possible Mechanism of Anti-Proliferative Activity” (International Journal of Molecular Sciences, 2022)

Tested on: HOS cells
Test: Invasiveness, BME-coated transwell assay
Assay type: cell-based, human
Details: 24 h
Procedure: The invasiveness of the HOS osteosarcoma cells was assessed after treatment with compound 4 at concentrations of 12.5, 25 and 50 µM. The assay was carried out using the Trevigen’sCultureCoat®24-well Cell Invasion Assay (R&D Systems, Minneapolis, […], USA) equipped with a Basement Membrane Extract (BME)-coated membrane (8 µm) of transwell inserts. The assay was performed according to the manufacturer’s instruction and as in the transwell migration assay described above.

Compound: [BH3-][P+](OC(C)C)(OC(C)C)C(Nc1ccc(Br)cc1)c1ccc([N+](=O)[O-])cc1 (stereo not drawn) [Compound 4, [1-(N-p-bromophenylamino)]-1-(p-nitrophenyl)methylphosphonousacid-borane diisopropyl ester]
- decrease in cell invasiveness (12.5 µM): approx. 53%
- decrease in cell invasiveness (25 µM): ~70%
- decrease in cell invasiveness (50 µM): ~82%
